Measured values published in patent US12544375B2, “Small molecule therapeutic for parkinson's disease paired with a biomarker of therapeutic activity” (The Board of Trustees of the Leland Stanford Junior …, priority 2019, dated 2026).

Biological target: T1, Myc-Miro1-7A (Homo sapiens, UniProt Q8IXI2, D530A/K427A/K454A/K528A/N428A/Q446A/S432A)
T1 construct: expressed in transfected cells; host or cells: human skin fibroblasts Healthy-1 and PD-2 (Lipofectamine 2000)
Assay: Drug-resistant mutant Myc-Miro1-7A expressed in fibroblasts, immunostaining
Assay type: cell-based
Conditions: expressed in PD-2 fibroblasts, CCCP treatment
Experimental: FIG. 2A-FIG. 2F. Miro1 Reducer Eliminates the Miro1 Defect in PD Fibroblasts. (FIG. 2A) Chemical properties of Miro1 Reducer. (FIG. 2B) Wild-type flies (w^1118) were fed with DMSO alone (0 μM Miro1 Reducer) or Miro1 Reducer in DMSO at 250 μM for 7 days, and lysed and blotted as indicated. The band intensities are normalized to those of Tubulin from the same blots. n=4. (FIG. 2C-FIG. 2E) Fibroblasts were treated, lysed, and blotted as indicated. (FIG. 2C) Band intensities are normalized to those of GAPDH from the same blots and compared to “Healthy-1, no treatment” except otherwise indicated. n=4. (FIG. 2D) Band intensities are normalized to those of ATP5β from the same blots and expressed as a percentage of the mean of “0 μM Miro1 Reducer with CCCP”. Mean±S.E.M is shown. n=3. (FIG. 2E) Band intensities are normalized to those of GAPDH from the same blots and compared to “Healthy-1, no CCCP, no MG132” except otherwise indicated. n=4. (FIG. 2F) Healthy-1 and PD-2 fibroblasts were transfected as indicated, and immunostained with anti-Myc (Miro1, green) and stained with Dapi (blue). The Miro1 intensity is normalized to that of mito-dsRed from the same cell and quantified across 37-62 cells from 5 fields each transfection, 3 independent transfections. Scale bars: 50 μm. For (FIG. 2C-FIG. 2F), both CCCP and Miro1 Reducer were dissolved in DMSO. […]

T1 sequence (Q8IXI2 whole entry K427A/N428A/S432A/Q446A/K454A/K528A/D530A): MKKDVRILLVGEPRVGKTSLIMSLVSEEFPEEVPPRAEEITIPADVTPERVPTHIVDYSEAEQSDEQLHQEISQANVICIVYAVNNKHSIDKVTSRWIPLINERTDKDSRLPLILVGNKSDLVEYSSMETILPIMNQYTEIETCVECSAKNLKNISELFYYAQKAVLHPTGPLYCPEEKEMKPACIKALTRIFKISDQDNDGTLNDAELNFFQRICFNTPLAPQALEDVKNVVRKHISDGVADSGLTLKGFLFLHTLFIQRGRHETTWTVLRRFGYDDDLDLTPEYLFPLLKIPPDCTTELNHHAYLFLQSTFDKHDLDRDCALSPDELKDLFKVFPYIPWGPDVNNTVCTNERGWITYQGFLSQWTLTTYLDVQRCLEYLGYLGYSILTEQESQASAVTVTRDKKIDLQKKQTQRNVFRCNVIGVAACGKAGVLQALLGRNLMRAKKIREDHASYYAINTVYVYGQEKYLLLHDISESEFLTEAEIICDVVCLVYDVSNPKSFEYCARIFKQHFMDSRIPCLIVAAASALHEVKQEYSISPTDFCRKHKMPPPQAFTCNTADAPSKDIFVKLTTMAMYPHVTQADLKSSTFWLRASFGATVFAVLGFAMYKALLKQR

SMILES: O=C(Nc1ccc(Nc2cc(-n3ccnc3)ncn2)cc1)Nc1cccc(F)c1 [Miro1 Reducer]
- response of mutant Myc-Miro1-7A to compound: failed to respond
